# In US20160184274A1, “Methods for inhibiting mesenchymal phenotype after epithelial-to-mesenchymal transition” (Fibrostatin, S.L., priority 2014, published 2016):
# “Also recorded” adds a separate entry of the source.
# What was measured:
# [1] = tested on: 4T1 mouse breast cancer cells; experiment: Murine breast cancer 4T1 model; assay type: in vivo, Balb/c mice
# Method: FIG. 10. […] Control, n=43; T12, n=18. FIG. 11. T12 targets circulating 4T1 cancer cells. A, Balb/c female mice were inoculated with 4T1 mouse breast cancer cells at mammary fat pads. At day 20 after cell inoculation mice were subjected to PET analysis for metastases detection. White arrows denote metastatic foci at the spinal cord. B, Balb/c female from A were either left untreated (Control), or were treated with T12 in drinking water from day 20. At day 35 blood was seeded in the presence of 6-thioguanine and circulating 4T1 cells selected and further cultured. Shown are phase contrast images of the resulting cultures acquired with an inverted microscope. […] C, circulating 4T1 cells recovered as in B and 4T1 cells were cultured in standard 2D cultures and subjected to RNA extraction, and RNA samples were analyzed by RT-qPCR. Shown are the relative quantities (RQ) of the indicated mRNAs of circulating 4T1 cells using levels from 4T1 cells as reference. D, the cultures in C were treated with the indicated concentrations of T12 for 24 h. Dead cells in culture media were quantified by measuring cell size using an automated cell counter (Moxi Z, Orflo). The number of dead cells in the culture media of the respective untreated cells (−) was used as reference. E, circulating 4T1 cells recovered as in B or 4T1 cells were cultured in ultra-low binding plates and treated with the indicated concentrations of T12 for 9 days, cells were lysed and analyzed by Western blot using antibodies specific for activated caspase 3. The levels of GAPDH were determined for loading control purposes. For other assays, 10^4 4 T1 cells were suspended in 10 μl PBS and subcutaneously injected into the 4th mammary fat pad of 4-week-old Balb/c female mice, and either left untreated or treated since the inoculation day with T12 (12 mg/kg/day in drinking water). Primary tumors formed and dimensions were periodically measured with a caliper.
# [2] = tested on: RAW264.7; experiment: Collagen IV expression in RAW264.7; assay type: cell-based; conditions: data not shown
compound,measurement,setting,value
"COc1ccc(-c2ccc(-c3cccc(C)c3)c(C)c2)c(CCC(=O)O)c1 [T12, 3-[4″-methoxy-3,2′-dimethyl-(1,1′;4′,1″)terphenyl-2″-yl] propionic acid]",tumor volume (anti-tumor activity),"[1]; T12 12 mg/kg/day in drinking water from inoculation, FIG. 10B, 12 mg/kg/day",displayed anti-tumor activity; also recorded: differences are statistically significant
same,superficial metastasis per lung,"[1]; T12 12 mg/kg/day in drinking water, day 25, FIG. 10C, 12 mg/kg/day",inhibited metastasis formation; also recorded: Differences are statistically significant
same,recovery of circulating 4T1 tumor cells from blood,"[1]; T12 in drinking water from day 20, blood seeded at day 35 with 6-thioguanine, FIG. 11B",impeded the isolation of circulating 4T1 tumor cells; also recorded: could not be recovered
same,collagen IV expression,[2],significantly reduced collagen IV expression
